Laboratory results as given in patent US6504058B1 (priority 1997, dated 2003).

How the values were obtained:
Pyricularia oryzae = assay type: in vivo, Pyricularia oryzae (on rice seedlings); details: 200 ppm test suspension sprayed to run-off (equivalent to 500 g/ha) on rice seedlings; 100 = 100% disease control, 0 = no control; # = significant activity
Phytophthora infestans = assay type: in vivo, Phytophthora infestans (on tomato seedlings); details: 200 ppm test suspension sprayed to run-off (equivalent to 500 g/ha) on tomato seedlings; 100 = 100% disease control, 0 = no control; # = significant activity
[1] = test system: Erysiphe graminis f. sp. tritici; experiment: Test A: wheat powdery mildew, preventive spray on wheat seedlings, disease rating; assay type: in vivo, Erysiphe graminis f. sp. tritici (on wheat seedlings); details: 200 ppm test suspension sprayed to run-off (equivalent to 500 g/ha) on wheat seedlings; 100 = 100% disease control, 0 = no control; # = significant activity
In short: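 Compounds at 200 ppm (acetone 3%, 250 ppm Trem 014 in water; equivalent to 500 g/ha) sprayed to run-off on wheat seedlings, inoculated with spore dust the following day. Plants held at 20° C. for 7 days, then rated 0–100% disease control relative to untreated controls.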

Puccinia recondita = experiment: Test B: wheat leaf rust, preventive spray on wheat seedlings, disease rating; assay type: in vivo, Puccinia recondita (on wheat seedlings); details: 200 ppm test suspension sprayed to run-off (equivalent to 500 g/ha) on wheat seedlings; 100 = 100% disease control, 0 = no control; # = significant activity
In short: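 Wheat seedlings were sprayed to run-off with 200 ppm suspensions (≈500 g/ha; 3% acetone, 250 ppm Trem 014) and inoculated with Puccinia recondita spores the next day. Plants were held 24 h saturated at 20 °C, then 6 days at 20 °C. Disease control was rated 0-100 relative to untreated controls.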

Botrytis cinerea = experiment: Test E: gray mold, preventive spray on cucumber seedlings, disease rating; assay type: in vivo, Botrytis cinerea (on cucumber seedlings); details: 200 ppm test suspension sprayed to run-off (equivalent to 500 g/ha) on cucumber seedlings; 100 = 100% disease control, 0 = no control; # = significant activity
In short: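 Cucumber seedlings sprayed to run-off with 200 ppm suspension (equivalent to 500 g/ha), inoculated next day with B. cinerea spores. Kept 48 h saturated at 20 °C, then 5 days in growth chamber at 20 °C; disease control rated 0–100 relative to controls.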

CC(COc1cc(F)ccc1Cl)NC(=O)C1(C)CC(C)(Br)C1 (centres unmarked) [compound 55]
Test C disease control rating (rice blast) (Pyricularia oryzae): 74% | Test D disease control rating (potato and tomato late blight) (Phytophthora infestans): 0 (a rating of 0 indicates no disease control (relative to the controls)) | Test A disease control rating (wheat powdery mildew) [1]: 83# % | Test B disease control rating (wheat leaf rust) (Puccinia recondita): 0 (a rating of 0 indicates no disease control (relative to the controls)) | Test E disease control rating (gray mold) (Botrytis cinerea): 0 (a rating of 0 indicates no disease control (relative to the controls))

CC(COc1cc(F)ccc1Cl)NC(=O)C1(C)CC(C)(Br)C1 (centres unmarked) [compound 56]
Test C disease control rating (rice blast) (Pyricularia oryzae): 100# (a rating of 100 indicates 100% disease control) | Test D disease control rating (potato and tomato late blight) (Phytophthora infestans): 0 (a rating of 0 indicates no disease control (relative to the controls)) | Test A disease control rating (wheat powdery mildew) [1]: 99# % | Test B disease control rating (wheat leaf rust) (Puccinia recondita): 0 (a rating of 0 indicates no disease control (relative to the controls)) | Test E disease control rating (gray mold) (Botrytis cinerea): 0 (a rating of 0 indicates no disease control (relative to the controls))

CC(COc1cc(F)ccc1F)NC(=O)C1(C)CC(C)(Br)C1 (centres unmarked) [compound 57]
Test C disease control rating (rice blast) (Pyricularia oryzae): 86# % | Test D disease control rating (potato and tomato late blight) (Phytophthora infestans): 0 (a rating of 0 indicates no disease control (relative to the controls)) | Test A disease control rating (wheat powdery mildew) [1]: 90# % | Test B disease control rating (wheat leaf rust) (Puccinia recondita): 0 (a rating of 0 indicates no disease control (relative to the controls)) | Test E disease control rating (gray mold) (Botrytis cinerea): 0 (a rating of 0 indicates no disease control (relative to the controls))

CC(COc1cc(F)ccc1F)NC(=O)C1(C)CC(C)(Br)C1 (centres unmarked) [compound 58]
Test C disease control rating (rice blast) (Pyricularia oryzae): 97# % | Test D disease control rating (potato and tomato late blight) (Phytophthora infestans): 0 (a rating of 0 indicates no disease control (relative to the controls)) | Test A disease control rating (wheat powdery mildew) [1]: 72% | Test B disease control rating (wheat leaf rust) (Puccinia recondita): 0 (a rating of 0 indicates no disease control (relative to the controls)) | Test E disease control rating (gray mold) (Botrytis cinerea): 0 (a rating of 0 indicates no disease control (relative to the controls))

COc1cc(Br)ccc1C(C)NC(=O)C1(C)CC(C)(Cl)C1 (centres unmarked) [compound 59]
Test C disease control rating (rice blast) (Pyricularia oryzae): 100# (a rating of 100 indicates 100% disease control) | Test D disease control rating (potato and tomato late blight) (Phytophthora infestans): 23% | Test A disease control rating (wheat powdery mildew) [1]: 0 (a rating of 0 indicates no disease control (relative to the controls)) | Test B disease control rating (wheat leaf rust) (Puccinia recondita): 85# % | Test E disease control rating (gray mold) (Botrytis cinerea): 0 (a rating of 0 indicates no disease control (relative to the controls))

COc1cc(Br)ccc1C(C)NC(=O)C1(C)CC(C)(Cl)C1 (centres unmarked) [compound 60]
Test C disease control rating (rice blast) (Pyricularia oryzae): 100# (a rating of 100 indicates 100% disease control) | Test D disease control rating (potato and tomato late blight) (Phytophthora infestans): 23% | Test A disease control rating (wheat powdery mildew) [1]: 0 (a rating of 0 indicates no disease control (relative to the controls)) | Test B disease control rating (wheat leaf rust) (Puccinia recondita): 0 (a rating of 0 indicates no disease control (relative to the controls)) | Test E disease control rating (gray mold) (Botrytis cinerea): 0 (a rating of 0 indicates no disease control (relative to the controls))

CC(NC(=O)C1(C)CC(Cl)(CCl)C1)c1ccc(Br)cc1 (centres unmarked) [compound 61]
Test C disease control rating (rice blast) (Pyricularia oryzae): 100# (a rating of 100 indicates 100% disease control) | Test D disease control rating (potato and tomato late blight) (Phytophthora infestans): 96# % | Test A disease control rating (wheat powdery mildew) [1]: 0 (a rating of 0 indicates no disease control (relative to the controls)) | Test B disease control rating (wheat leaf rust) (Puccinia recondita): 0 (a rating of 0 indicates no disease control (relative to the controls)) | Test E disease control rating (gray mold) (Botrytis cinerea): 0 (a rating of 0 indicates no disease control (relative to the controls))

CC(NC(=O)C1(C)CC(Cl)(CCl)C1)c1ccc(Br)cc1 (centres unmarked) [compound 62]
Test C disease control rating (rice blast) (Pyricularia oryzae): 97# % | Test D disease control rating (potato and tomato late blight) (Phytophthora infestans): 84# % | Test A disease control rating (wheat powdery mildew) [1]: 0 (a rating of 0 indicates no disease control (relative to the controls)) | Test B disease control rating (wheat leaf rust) (Puccinia recondita): 0 (a rating of 0 indicates no disease control (relative to the controls)) | Test E disease control rating (gray mold) (Botrytis cinerea): 0 (a rating of 0 indicates no disease control (relative to the controls))

CC(NC(=O)C1(C)CC(Cl)(CCl)C1)c1ccc2ccccc2c1 (centres unmarked) [compound 63]
Test C disease control rating (rice blast) (Pyricularia oryzae): 53% | Test D disease control rating (potato and tomato late blight) (Phytophthora infestans): 37% | Test A disease control rating (wheat powdery mildew) [1]: 0 (a rating of 0 indicates no disease control (relative to the controls)) | Test B disease control rating (wheat leaf rust) (Puccinia recondita): 0 (a rating of 0 indicates no disease control (relative to the controls)) | Test E disease control rating (gray mold) (Botrytis cinerea): 0 (a rating of 0 indicates no disease control (relative to the controls))

CC(NC(=O)C1(C)CC(Cl)(CCl)C1)c1ccc2ccccc2c1 (centres unmarked) [compound 64]
Test C disease control rating (rice blast) (Pyricularia oryzae): 53% | Test D disease control rating (potato and tomato late blight) (Phytophthora infestans): 91# % | Test A disease control rating (wheat powdery mildew) [1]: 0 (a rating of 0 indicates no disease control (relative to the controls)) | Test B disease control rating (wheat leaf rust) (Puccinia recondita): 0 (a rating of 0 indicates no disease control (relative to the controls)) | Test E disease control rating (gray mold) (Botrytis cinerea): 0 (a rating of 0 indicates no disease control (relative to the controls))

CC(NC(=O)C1(C)CC(F)(F)C1)c1ccc(Br)cc1 (centres unmarked) [compound 67]
Test C disease control rating (rice blast) (Pyricularia oryzae): 99# % | Test D disease control rating (potato and tomato late blight) (Phytophthora infestans): 43% | Test A disease control rating (wheat powdery mildew) [1]: 63% | Test B disease control rating (wheat leaf rust) (Puccinia recondita): 0 (a rating of 0 indicates no disease control (relative to the controls)) | Test E disease control rating (gray mold) (Botrytis cinerea): 19%

CC(NC(=O)C1(C)CC(C)(Br)C1)c1ccc(Cl)cc1Cl (centres unmarked) [compound 68]
Test C disease control rating (rice blast) (Pyricularia oryzae): 97# % | Test D disease control rating (potato and tomato late blight) (Phytophthora infestans): 24% | Test A disease control rating (wheat powdery mildew) [1]: 0 (a rating of 0 indicates no disease control (relative to the controls)) | Test B disease control rating (wheat leaf rust) (Puccinia recondita): 0 (a rating of 0 indicates no disease control (relative to the controls)) | Test E disease control rating (gray mold) (Botrytis cinerea): 0 (a rating of 0 indicates no disease control (relative to the controls))

CC(NC(=O)C1(C)CC(C)(Br)C1)c1ccc(Cl)cc1Cl (centres unmarked) [compound 69]
Test C disease control rating (rice blast) (Pyricularia oryzae): 100# (a rating of 100 indicates 100% disease control) | Test D disease control rating (potato and tomato late blight) (Phytophthora infestans): 24% | Test A disease control rating (wheat powdery mildew) [1]: 0 (a rating of 0 indicates no disease control (relative to the controls)) | Test B disease control rating (wheat leaf rust) (Puccinia recondita): 0 (a rating of 0 indicates no disease control (relative to the controls)) | Test E disease control rating (gray mold) (Botrytis cinerea): 0 (a rating of 0 indicates no disease control (relative to the controls))

COc1cc(Br)ccc1C(C)NC(=O)C1(C)CC(C)(F)C1 (centres unmarked) [compound 70]
Test C disease control rating (rice blast) (Pyricularia oryzae): 97# % | Test D disease control rating (potato and tomato late blight) (Phytophthora infestans): 20% | Test A disease control rating (wheat powdery mildew) [1]: 0 (a rating of 0 indicates no disease control (relative to the controls)) | Test B disease control rating (wheat leaf rust) (Puccinia recondita): 0 (a rating of 0 indicates no disease control (relative to the controls)) | Test E disease control rating (gray mold) (Botrytis cinerea): 19%

CC(NC(=O)C1(C)CC(C)(Cl)C1)c1ccc(Cl)cc1Cl (centres unmarked) [compound 71]
Test C disease control rating (rice blast) (Pyricularia oryzae): 100# (a rating of 100 indicates 100% disease control) | Test D disease control rating (potato and tomato late blight) (Phytophthora infestans): 100# (a rating of 100 indicates 100% disease control) | Test A disease control rating (wheat powdery mildew) [1]: 61% | Test B disease control rating (wheat leaf rust) (Puccinia recondita): 0 (a rating of 0 indicates no disease control (relative to the controls)) | Test E disease control rating (gray mold) (Botrytis cinerea): 0 (a rating of 0 indicates no disease control (relative to the controls))

CC(NC(=O)C1(C)CC(C)(Cl)C1)c1ccc(Cl)cc1Cl (centres unmarked) [compound 72]
Test C disease control rating (rice blast) (Pyricularia oryzae): 99# % | Test D disease control rating (potato and tomato late blight) (Phytophthora infestans): 66% | Test A disease control rating (wheat powdery mildew) [1]: 91# % | Test B disease control rating (wheat leaf rust) (Puccinia recondita): 0 (a rating of 0 indicates no disease control (relative to the controls)) | Test E disease control rating (gray mold) (Botrytis cinerea): 0 (a rating of 0 indicates no disease control (relative to the controls))
